Test results: ChEMBL document CHEMBL1145714, “Activity of Parthenolide at 5HT2A receptors” (J Nat Prod, 1997)

Columns and labels:
[1] = Displacement of [3H]ketanserin from 5HT2A receptor in rabbit cerebral cortex membrane; assay type: cell membranes, Oryctolagus cuniculus
[2] = biological target: T1, 5-hydroxytryptamine receptor 2A (Rattus norvegicus, UniProt P14842); assay: Displacement of [3H]ketanserin from rat 5HT2A receptor expressed in mouse NIH3T3 cells; assay type: cell-based
[3] = biological target: T1, 5-hydroxytryptamine receptor 2A; assay: Displacement of [3H]ketanserin from 5HT2A receptor in rat brain membrane; assay type: cell membranes

T1 sequence (P14842 whole entry): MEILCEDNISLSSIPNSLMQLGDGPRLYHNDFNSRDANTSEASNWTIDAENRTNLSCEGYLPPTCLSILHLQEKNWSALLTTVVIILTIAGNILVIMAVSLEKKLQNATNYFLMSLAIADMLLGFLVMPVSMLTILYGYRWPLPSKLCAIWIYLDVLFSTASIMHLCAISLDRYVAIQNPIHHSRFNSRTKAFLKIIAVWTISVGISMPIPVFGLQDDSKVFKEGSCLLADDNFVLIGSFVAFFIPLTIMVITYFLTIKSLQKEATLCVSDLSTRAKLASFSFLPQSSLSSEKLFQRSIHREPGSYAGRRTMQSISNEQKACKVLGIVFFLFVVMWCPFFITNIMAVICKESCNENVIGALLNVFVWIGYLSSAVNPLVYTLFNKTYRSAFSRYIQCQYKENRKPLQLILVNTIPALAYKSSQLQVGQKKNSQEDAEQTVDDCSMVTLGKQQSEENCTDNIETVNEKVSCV

| Ki [2] | Ki [3] | SMILES | Ki [1] |
| --- | --- | --- | --- |
|  |  | CN1C[C@@H](NS(=O)(=O)N(C)C)C[C@@H]2c3cccc4c3c(cn4C)C[C@H]21 [MESULERGINE] | 0.0083 µM |
| 100 µM | 250 µM | C=C1C(=O)O[C@@H]2C3O[C@]3(C)CC/C=C(\C)CC[C@@H]12 (some centres undefined) | 230 µM |
